# Legend:
# Assay type in all cases: in vivo
# Oryza sativa = assay: Post-emergence crop plant compatibility
# Method: (§1) Seeds of monocotyledonous and dicotyledonous weeds and crop plants were placed in sandy loam in plastic or wood-fiber pots, covered with soil and cultivated in a greenhouse under controlled growth conditions. 2 to 3 weeks after sowing, the test plants were treated at the one-leaf stage. The compounds of the invention, formulated in the form of wettable powders (WP) or as emulsion concentrates (EC), were then sprayed onto the green parts of the plants as aqueous suspension or emulsion with addition of 0.5% additive at a water application rate of […] (converted). After the test plants had been kept in the greenhouse under optimum growth conditions for about 3 weeks, the activity of the preparations was rated visually in comparison to untreated controls. For example, 100% activity=the plants have died, 0% activity=like control plants.
# (§2) Here, the observed effects on selected crop plants are stated in comparison to the untreated controls (values in %).
# Triticum aestivum = assay: Post-emergence crop plant compatibility
# Method: as §1, §2
# Zea mays = assay: Post-emergence crop plant compatibility
# Method: as §1, §2
# Setaria viridis = assay: Post-emergence herbicidal action; settings: 504 h, read-out: Setaria viridis (efficacy in %); for pest or weed control at 5 g/ha: application rate 5 g/ha; for pest or weed control at 20 g/ha: application rate 20 g/ha
# Method: as §1, with “plants. Tables A1 to A14 below show the effects of selected compounds of the general formula (I) according to Tables I.1 to I.34 on various harmful plants and at an application rate corresponding to 20 g/ha and less, which were obtained by the experimental procedure mentioned above.” for “plants.”
# Alopecurus myosuroides = assay: Post-emergence herbicidal action
# Method: as §1, with “plants. Tables A1 to A14 below show the effects of selected compounds of the general formula (I) according to Tables I.1 to I.34 on various harmful plants and at an application rate corresponding to 20 g/ha and less, which were obtained by the experimental procedure mentioned above.” for “plants.”
# Polygonum convolvulus = assay: Post-emergence herbicidal action; settings: Fallopia convolvulus, 504 h, read-out: Polygonum convolvulus (efficacy in %); for pest or weed control at 5 g/ha: application rate 5 g/ha; for pest or weed control at 20 g/ha: application rate 20 g/ha
# Method: as §1, with “plants. Tables A1 to A14 below show the effects of selected compounds of the general formula (I) according to Tables I.1 to I.34 on various harmful plants and at an application rate corresponding to 20 g/ha and less, which were obtained by the experimental procedure mentioned above.” for “plants.”
# Echinochloa crus-galli = assay: Post-emergence herbicidal action; settings: Echinochloa crus-galli, 504 h, read-out: Echinochloa crus-galli (efficacy in %); for pest or weed control at 5 g/ha: application rate 5 g/ha; for pest or weed control at 20 g/ha: application rate 20 g/ha
# Method: as §1, with “plants. Tables A1 to A14 below show the effects of selected compounds of the general formula (I) according to Tables I.1 to I.34 on various harmful plants and at an application rate corresponding to 20 g/ha and less, which were obtained by the experimental procedure mentioned above.” for “plants.”
# Pharbitis purpurea = assay: Post-emergence herbicidal action; settings: Ipomoea purpurea, 504 h, read-out: Pharbitis purpurea (efficacy in %); for pest or weed control at 5 g/ha: application rate 5 g/ha; for pest or weed control at 20 g/ha: application rate 20 g/ha
# Method: as §1, with “plants. Tables A1 to A14 below show the effects of selected compounds of the general formula (I) according to Tables I.1 to I.34 on various harmful plants and at an application rate corresponding to 20 g/ha and less, which were obtained by the experimental procedure mentioned above.” for “plants.”
# Veronica persica = assay: Post-emergence herbicidal action; settings: Veronica persica, 504 h, read-out: Veronica persica (efficacy in %); for pest or weed control at 5 g/ha: application rate 5 g/ha; for pest or weed control at 20 g/ha: application rate 20 g/ha
# Method: as §1, with “plants. Tables A1 to A14 below show the effects of selected compounds of the general formula (I) according to Tables I.1 to I.34 on various harmful plants and at an application rate corresponding to 20 g/ha and less, which were obtained by the experimental procedure mentioned above.” for “plants.”
# Matricaria inodora = assay: Post-emergence herbicidal action; settings: Tripleurospermum inodorum, 504 h, application rate 20 g/ha, read-out: Matricaria inodora (efficacy in %)
# Method: as §1, with “plants. Tables A1 to A14 below show the effects of selected compounds of the general formula (I) according to Tables I.1 to I.34 on various harmful plants and at an application rate corresponding to 20 g/ha and less, which were obtained by the experimental procedure mentioned above.” for “plants.”
# Avena fatua = assay: Post-emergence herbicidal action; settings: application rate 20 g/ha
# Method: as §1, with “plants. Tables A1 to A14 below show the effects of selected compounds of the general formula (I) according to Tables I.1 to I.34 on various harmful plants and at an application rate corresponding to 20 g/ha and less, which were obtained by the experimental procedure mentioned above.” for “plants.”
# Abutilon theophrasti = assay: Post-emergence herbicidal action; settings: Abutilon theophrasti, 504 h, read-out: Abutilon theophrasti (efficacy in %); for pest or weed control at 5 g/ha: application rate 5 g/ha; for pest or weed control at 20 g/ha: application rate 20 g/ha
# Method: as §1, with “plants. Tables A1 to A14 below show the effects of selected compounds of the general formula (I) according to Tables I.1 to I.34 on various harmful plants and at an application rate corresponding to 20 g/ha and less, which were obtained by the experimental procedure mentioned above.” for “plants.”
# Viola tricolor = assay: Post-emergence herbicidal action; settings: Viola tricolor, 504 h, read-out: Viola tricolor (efficacy in %); for pest or weed control at 5 g/ha: application rate 5 g/ha; for pest or weed control at 20 g/ha: application rate 20 g/ha
# Method: as §1, with “plants. Tables A1 to A14 below show the effects of selected compounds of the general formula (I) according to Tables I.1 to I.34 on various harmful plants and at an application rate corresponding to 20 g/ha and less, which were obtained by the experimental procedure mentioned above.” for “plants.”
# Digitaria sanguinalis = assay: Post-emergence herbicidal action; settings: 504 h, read-out: Digitaria sanguinalis (efficacy in %); for pest or weed control at 5 g/ha: application rate 5 g/ha; for pest or weed control at 20 g/ha: application rate 20 g/ha
# Method: as §1, with “plants. Tables A1 to A14 below show the effects of selected compounds of the general formula (I) according to Tables I.1 to I.34 on various harmful plants and at an application rate corresponding to 20 g/ha and less, which were obtained by the experimental procedure mentioned above.” for “plants.”
# Amaranthus retroflexus = assay: Post-emergence herbicidal action; settings: Amaranthus retroflexus, 504 h, read-out: Amaranthus retroflexus (efficacy in %); for pest or weed control at 5 g/ha: application rate 5 g/ha; for pest or weed control at 20 g/ha: application rate 20 g/ha
# Method: as §1, with “plants. Tables A1 to A14 below show the effects of selected compounds of the general formula (I) according to Tables I.1 to I.34 on various harmful plants and at an application rate corresponding to 20 g/ha and less, which were obtained by the experimental procedure mentioned above.” for “plants.”
# Glycine max = assay: Post-emergence crop plant compatibility; settings: application rate 1.25 g/ha
# Method: as §1, §2
# Stellaria media = assay: Post-emergence herbicidal action
# Method: as §1, with “plants. Tables A1 to A14 below show the effects of selected compounds of the general formula (I) according to Tables I.1 to I.34 on various harmful plants and at an application rate corresponding to 20 g/ha and less, which were obtained by the experimental procedure mentioned above.” for “plants.”
# Brassica napus = assay: Post-emergence crop plant compatibility; settings: application rate 1.25 g/ha
# Method: as §1, §2
SMILES,Zea mays (efficacy in %) (Zea mays; application rate 1.25 g/ha) [%],pest or weed control at 5 g/ha (Setaria viridis) [%],pest or weed control at 20 g/ha (Setaria viridis) [%],Alopecurus myosuroides (efficacy in %) (Alopecurus myosuroides; application rate 20 g/ha) [%],pest or weed control at 5 g/ha (Polygonum convolvulus) [%],pest or weed control at 20 g/ha (Polygonum convolvulus) [%],pest or weed control at 5 g/ha (Echinochloa crus-galli) [%],pest or weed control at 20 g/ha (Echinochloa crus-galli) [%],pest or weed control at 5 g/ha (Pharbitis purpurea) [%],pest or weed control at 20 g/ha (Pharbitis purpurea) [%],pest or weed control at 5 g/ha (Veronica persica) [%],pest or weed control at 20 g/ha (Veronica persica) [%],pest or weed control at 20 g/ha (Matricaria inodora) [%],pest or weed control at 5 g/ha (Abutilon theophrasti) [%],pest or weed control at 20 g/ha (Abutilon theophrasti) [%],pest or weed control at 5 g/ha (Viola tricolor) [%],pest or weed control at 20 g/ha (Viola tricolor) [%],pest or weed control at 20 g/ha (Digitaria sanguinalis) [%],pest or weed control at 5 g/ha (Amaranthus retroflexus) [%],pest or weed control at 20 g/ha (Amaranthus retroflexus) [%],other results
"Nn1c(C(F)(F)F)cc(=O)n(-c2cc(Sc3cccnc3OCC(=O)OCc3ccccc3)c(Cl)cc2F)c1=O [I.1-457, Benzyl {[3-({5-[3-amino-2,6-dioxo-4-(trifluoromethyl)-3,6-dihydropyrimidin-1(2H)-yl]-2-chloro-4-fluorophenyl}sulfanyl)pyridin-2-yl]oxy}acetate]",20,100,100,80,100,100,80,100,100,100,100,100,90,100,100,100,100,100,100,100,Oryza sativa (efficacy in %) (Oryza sativa; application rate 1.25 g/ha): 0%; Triticum aestivum (efficacy in %) (Triticum aestivum; application rate 1.25 g/ha): 20%; Alopecurus myosuroides (efficacy in %) (Alopecurus myosuroides; application rate 5 g/ha): 80%; Avena fatua (efficacy in %) (Avena fatua): 80%; pest or weed control at 5 g/ha (Digitaria sanguinalis): 100%
"CCOC(=O)C(C)Oc1ncccc1Sc1cc(-n2c(=O)cc(C(F)(F)F)n(N)c2=O)c(F)cc1Cl (centres unmarked) [I.2-442, Ethyl 2-{[3-({5-[3-amino-2,6-dioxo-4-(trifluoromethyl)-3,6-dihydropyrimidin-1(2H)-yl]-2-chloro-4-fluorophenyl}sulfanyl)pyridin-2-yl]oxy}propanoate]",10,100,100,,100,100,,100,,,100,100,90,100,100,100,100,100,100,100,Glycine max (efficacy in %) (Glycine max): 10%; Oryza sativa (efficacy in %) (Oryza sativa; application rate 5 g/ha): 0%; Triticum aestivum (efficacy in %) (Triticum aestivum; application rate 5 g/ha): 20%; Zea mays (efficacy in %) (Zea mays; application rate 5 g/ha): 20%; Stellaria media (efficacy in %) (Stellaria media; application rate 5 g/ha): 80%; Stellaria media (efficacy in %) (Stellaria media; application rate 20 g/ha): 100%
"COC(=O)CCCOc1ncccc1Sc1cc(-n2c(=O)cc(C(F)(F)F)n(N)c2=O)c(F)cc1Cl [I.6-441, Methyl 4-{[3-({5-[3-amino-2,6-dioxo-4-(trifluoromethyl)-3,6-dihydropyrimidin-1(2H)-yl]-2-chloro-4-fluorophenyl}sulfanyl)pyridin-2-yl]oxy}butanoate]",10,90,100,80,100,100,80,90,80,90,100,100,80,100,100,100,100,100,100,100,Brassica napus (efficacy in %) (Brassica napus): 20%; Oryza sativa (efficacy in %) (Oryza sativa; application rate 5 g/ha): 20%; Triticum aestivum (efficacy in %) (Triticum aestivum; application rate 5 g/ha): 20%; Zea mays (efficacy in %) (Zea mays; application rate 5 g/ha): 20%; Stellaria media (efficacy in %) (Stellaria media; application rate 5 g/ha): 100%; Stellaria media (efficacy in %) (Stellaria media; application rate 20 g/ha): 100%; pest or weed control at 5 g/ha (Digitaria sanguinalis): 80%

# Source: patent US20220274954A1, “SUBSTITUTED N-PHENYL-N-AMINOUARCILS AND SALTS THEREOF AND USE THEREOF AS HERBICIDAL AGENTS” (Bayer Aktiengesellschaft, priority 2019, published 2022)
